# Earlier results as cited in patent US20090136550A1, “MODIFIED RELEASE FORMULATIONS OF DILTIAZEM” (Capricorn Pharma Inc., priority 2007, published 2009).
# Where a name gives a salt, the structure may show the parent alone.
structure (smiles),measurement,value
COc1ccc([C@@H]2Sc3ccccc3N(CCN(C)C)C(=O)[C@@H]2OC(C)=O)cc1 [diltiazem hydrochloride],water solubility,highly water soluble
